Key:
human TLR9 = molecular target: T1, human TLR9 (Homo sapiens, UniProt Q9NR96); assay: TLR9 inhibition reporter assay (HEK-Blue cells, SEAP reporter, ODN2006 stimulation); format: cell-based; conditions: HEK-Blue cells overexpressing human TLR9, ODN2006 5 nM
T1 construct: host or cells: HEK-Blue cells
T1 sequence (Q9NR96 26-1032): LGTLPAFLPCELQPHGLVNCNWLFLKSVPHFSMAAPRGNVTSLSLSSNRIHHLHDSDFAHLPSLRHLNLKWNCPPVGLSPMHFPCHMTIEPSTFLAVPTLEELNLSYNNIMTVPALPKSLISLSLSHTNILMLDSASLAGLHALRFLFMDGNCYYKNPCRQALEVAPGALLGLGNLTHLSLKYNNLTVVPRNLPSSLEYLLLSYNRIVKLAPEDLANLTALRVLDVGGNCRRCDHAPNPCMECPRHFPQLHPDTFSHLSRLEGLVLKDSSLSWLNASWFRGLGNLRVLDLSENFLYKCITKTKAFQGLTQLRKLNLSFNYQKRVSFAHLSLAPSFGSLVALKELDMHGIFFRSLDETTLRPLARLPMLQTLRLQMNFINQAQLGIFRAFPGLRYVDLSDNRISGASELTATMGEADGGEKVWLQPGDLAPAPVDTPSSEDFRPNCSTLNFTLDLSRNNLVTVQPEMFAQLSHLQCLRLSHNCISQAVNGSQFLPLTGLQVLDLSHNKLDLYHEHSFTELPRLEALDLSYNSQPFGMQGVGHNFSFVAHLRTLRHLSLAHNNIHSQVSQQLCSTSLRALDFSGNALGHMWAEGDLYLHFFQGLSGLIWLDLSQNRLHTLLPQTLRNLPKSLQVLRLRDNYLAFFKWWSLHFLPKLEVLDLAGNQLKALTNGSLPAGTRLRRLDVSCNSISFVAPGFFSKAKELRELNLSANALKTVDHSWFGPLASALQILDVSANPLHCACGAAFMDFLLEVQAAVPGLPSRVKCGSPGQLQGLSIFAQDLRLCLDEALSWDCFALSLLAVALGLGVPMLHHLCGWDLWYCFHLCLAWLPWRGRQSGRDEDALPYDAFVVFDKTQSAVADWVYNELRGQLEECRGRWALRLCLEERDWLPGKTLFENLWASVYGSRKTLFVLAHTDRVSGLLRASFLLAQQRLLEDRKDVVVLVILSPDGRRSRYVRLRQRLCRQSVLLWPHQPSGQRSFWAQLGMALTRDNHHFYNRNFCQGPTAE
Procedure, shortened: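 Dose–response from 0.05 nM to 50 μM was run in HEK-Blue human TLR7, TLR8 and TLR9 reporter cells. After 30 min at room temperature with compound, ligand was added (TLR7 gardiquimod 7.5 μM; TLR8 R848 15.9 μM; TLR9 ODN2006 5 nM) and SEAP measured next day, at 22 h.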

human TLR8 = molecular target: T2, human TLR8 (Homo sapiens, UniProt Q9NR97); assay: TLR8 inhibition reporter assay (HEK-Blue cells, SEAP reporter, R848 stimulation); format: cell-based; conditions: HEK-Blue cells overexpressing human TLR8, R848 15.9 μM
T2 construct: host or cells: HEK-Blue cells
T2 sequence (Q9NR97 27-1041): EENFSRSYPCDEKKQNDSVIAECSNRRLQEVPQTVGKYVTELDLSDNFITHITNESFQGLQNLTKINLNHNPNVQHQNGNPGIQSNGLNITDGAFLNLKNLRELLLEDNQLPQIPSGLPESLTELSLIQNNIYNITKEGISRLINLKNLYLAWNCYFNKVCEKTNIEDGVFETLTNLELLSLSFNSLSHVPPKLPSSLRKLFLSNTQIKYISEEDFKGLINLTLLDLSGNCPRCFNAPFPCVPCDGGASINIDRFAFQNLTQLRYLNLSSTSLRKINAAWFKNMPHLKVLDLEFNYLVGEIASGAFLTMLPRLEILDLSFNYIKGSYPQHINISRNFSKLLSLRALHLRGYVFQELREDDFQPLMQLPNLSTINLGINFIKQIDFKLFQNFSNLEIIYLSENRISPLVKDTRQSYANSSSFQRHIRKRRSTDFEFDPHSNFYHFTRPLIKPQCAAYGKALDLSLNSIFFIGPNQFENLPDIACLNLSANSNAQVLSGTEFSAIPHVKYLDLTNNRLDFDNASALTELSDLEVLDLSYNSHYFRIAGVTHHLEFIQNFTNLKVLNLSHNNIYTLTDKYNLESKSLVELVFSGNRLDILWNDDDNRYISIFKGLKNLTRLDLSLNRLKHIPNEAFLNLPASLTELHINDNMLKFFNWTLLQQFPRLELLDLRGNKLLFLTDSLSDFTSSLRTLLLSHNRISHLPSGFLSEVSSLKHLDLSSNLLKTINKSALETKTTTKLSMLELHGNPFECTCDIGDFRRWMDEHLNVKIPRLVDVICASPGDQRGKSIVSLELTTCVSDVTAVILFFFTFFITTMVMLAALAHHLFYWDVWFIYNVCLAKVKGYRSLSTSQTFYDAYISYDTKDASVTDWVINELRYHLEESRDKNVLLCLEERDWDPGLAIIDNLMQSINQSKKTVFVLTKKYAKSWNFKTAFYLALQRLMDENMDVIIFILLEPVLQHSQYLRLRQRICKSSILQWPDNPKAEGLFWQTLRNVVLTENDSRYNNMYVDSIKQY
Procedure, shortened: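 In this cell reporter format, test compounds at 0.05 nM-50 μM final incubate 22 h with seeded cells (TLR7 15000, TLR8 20,000 per well). SEAP read-out by HEK-Blue Detection medium yields % inhibition relative to agonist/DMSO and known-inhibitor wells.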

Compound | IC50 (human TLR9) [nM] | IC50 (human TLR8) [nM]
COc1ccc(-c2[nH]c3ccc(C4CCN(C(=O)C[C@@H](C)O)CC4)cc3c2CC(F)(F)F)cc1OC [Example 353, (R)-1-(4-(2-(3,4-dimethoxyphenyl)-3-(2,2,2-trifluoroethyl)-1H-indol-5-yl)piperidin-1-yl)-3-hydroxybutan-1-one] | 40000 | 964
COc1ccc(-c2[nH]c3ccc(C4CCN(C(=O)COc5cccnc5)CC4)cc3c2CC(F)(F)F)cc1OC [Example 349, 1-(4-(2-(3,4-dimethoxyphenyl)-3-(2,2,2-trifluoroethyl)-1H-indol-5-yl)piperidin-1-yl)-2-(pyridin-3-yloxy)ethan-1-one] | 9730 | 671
COc1ccc(-c2[nH]c3ccc(C4CCN(CC(=O)N5CCN(c6ccncc6)CC5)CC4)cc3c2CC(F)(F)F)cc1OC [Example 366, 2-(4-(2-(3,4-dimethoxyphenyl)-3-(2,2,2-trifluoroethyl)-1H-indol-5-yl)piperidin-1-yl)-1-(4-(pyridin-4-yl)piperazin-1-yl) ethan-1-one] | 141 | 23
COc1ccc(-c2[nH]c3ccc(C4CCN(C(=O)C5CCN(C(C)=O)CC5)CC4)cc3c2CC(F)(F)F)cc1OC [Example 345, 1-(4-(4-(2-(3,4-dimethoxyphenyl)-3-(2,2,2-trifluoroethyl)-1H-indol-5-yl)piperidine-1-carbonyl)piperidin-1-yl)ethan-1-one] | 25200 | 1030
COc1ccc(-c2[nH]c3ccc(C4CCN(C(=O)CCn5cccc5)CC4)cc3c2CC(F)(F)F)cc1OC [Example 344, 1-(4-(2-(3,4-dimethoxyphenyl)-3-(2,2,2-trifluoroethyl)-1H-indol-5-yl)piperidin-1-yl)-3-(1H-pyrrol-1-yl)propan-1-one] | ≥ 50000 | 1420
COc1ccc(-c2[nH]c3ccc(C4CCN(C(=O)CN(C)C)CC4)cc3c2CC(F)F)cc1OC [Example 399, 1-(4-(3-(2,2-difluoroethyl)-2-(3,4-dimethoxyphenyl)-1H-indol-5-yl)piperidin-1-yl)-2-(dimethylamino)ethan-1-one] | 2170 | 82
COc1ccc(-c2[nH]c3ccc(C4CCNCC4F)cc3c2C(C)C)cc1OC (single isomer, unassigned) [Example 323, 2-(3,4-dimethoxyphenyl)-5-(3-fluoropiperidin-4-yl)-3-isopropyl-1H-indole] | 2870 | 20
COc1ccc(-c2[nH]c3ccc(C4CCN(CC(=O)N5CC[C@@H](N(C)C)C5)CC4)cc3c2CC(F)(F)F)cc1OC [Example 373, (R)-2-(4-(2-(3,4-dimethoxyphenyl)-3-(2,2,2-trifluoroethyl)-1H-indol-5-yl)piperidin-1-yl)-1-(3-(dimethylamino)pyrrolidin-1-yl)ethan-1-one] | 370 | 44
COc1ccc(-c2[nH]c3ccc(C4CCN(CC(=O)NCCC5CCCN5C)CC4)cc3c2CC(F)(F)F)cc1OC (stereo not shown) [Example 360, 2-(4-(2-(3,4-dimethoxyphenyl)-3-(2,2,2-trifluoroethyl)-1H-indol-5-yl)piperidin-1-yl)-N-(2-(1-methylpyrrolidin-2-yl)ethyl) acetamide] | 392 | 43
COc1ccc(-c2[nH]c3ccc(C4CCNCC4F)cc3c2C(C)C)cc1OC (racemic) [Example 319, 2-(3,4-dimethoxyphenyl)-5-(3-fluoropiperidin-4-yl)-3-isopropyl-1H-indole] | 9110 | 46
COc1ccc(-c2[nH]c3ccc(C4CCN(CC(=O)N5CCC(N6CCCCC6)CC5)CC4)cc3c2CC(F)(F)F)cc1OC [Example 359, 1-([1,4′-bipiperidin]-1′-yl)-2-(4-(2-(3,4-dimethoxyphenyl)-3-(2,2,2-trifluoroethyl)-1H-indol-5-yl)piperidin-1-yl)ethan-1-one] | 267 | 63

Reference: US11180474B2 (BRISTOL-MYERS SQUIBB COMPANY, priority 2016, dated 2021)
